Laboratory results as given in BindingDB's records for doi:10.1021/jm00045a011 (Eisai, 1994).

Target: Arachidonate 5-lipoxygenase (Homo sapiens)
Assay: Tested for inhibitory activity against leukotriene B4 (LTB4) production in human neutrophils

- IC50: 30 nM
SMILES: Cc1c(O)c(C)c2sc(NCc3ccc(S(N)(=O)=O)cc3)nc2c1C [4-[(6-Hydroxy-4,5,7-trimethyl-benzothiazol-2-ylamino)-methyl]-benzenesulfonamide]
